In patent US10954235B2, “Crystalline forms of valbenazine salts” (Sandoz AG, priority 2017, dated 2021):

Assay: Differential scanning calorimetry (DSC), thermal stability
Type: physicochemical
Details: heating rate 10 K/min; judged from first endotherm
Experimental: Differential scanning calorimetry (DSC) was performed with a DSC 7 (Perkin-Elmer, Norwalk, Conn., USA) using a Pyris 2.0 software. 4.7307±0.0005 mg sample (using a UM3 ultramicrobalance, Mettler, Greifensee, CH) were weighed into Al-Pans (25 microliter) and sealed with a cover, which was perforated by a needle. The sample was heated at a rate of 10 K/min. Dry nitrogen was used as the purge gas (purge rate: 20 mL/min). Differential scanning calorimetry (DSC) was performed with a DSC 7 (Perkin-Elmer, Norwalk, Conn., USA) using a Pyris 2.0 software. 7.115±0.0005 mg sample (using a UM3 ultramicrobalance, Mettler, Greifensee, CH) were weighed into Al-Pans (25 microliter) and sealed with a cover, which was perforated by a needle. The sample was heated at a rate of 10 K/min. Dry nitrogen was used as the purge gas (purge rate: 20 mL/min).

With COc1cc2c(cc1OC)[C@H]1C[C@@H](OC(=O)[C@@H](N)C(C)C)[C@H](CC(C)C)CN1CC2 [Example 1, ((S)-(2R,3R,11bR)-3-isobutyl-9,10-dimethoxy-2,3,4,6,7,11b-hexahydro-1H-pyrido[2,1-a]isoquinolin-2-yl 2-amino-3-methylbutanoate) ditosylate] the “stability against temperature stress (DSC)” value was “very stable against temperature stress”.
